The text below walks through data of patent US11873298B2, “Compounds and uses thereof” (JANSSEN PHARMACEUTICA NV, priority 2017, dated 2024).

pEC50, pIC50: −log10 of the molar value.

Broadly, the pEC50 is the negative decadic logarithm of the EC50, by convention in mol/L. The term pIC50 denotes the IC50 on a negative log10 scale, so that one unit is a factor of ten. Low readings indicate a high IC50, high ones a low IC50.

The subject of experiment [1] is yeast strains expressing the human α-synuclein. The experiment can be described thus: Yeast α-synuclein toxicity rescue assay (OD600 growth). The conditions noted are these: 40 h; for pEC50: read-out: α-Syn EC50; for Emax: read-out: α-Syn Emax.
For another experiment, the target named is T1, SCD1 (Homo sapiens, UniProt O00767).
T1 construct: host or cells: S. cerevisiae ole1Δ strain (W303 pdr1Δ pdr3Δ background), plasmid pRS316 with TDH3 promoter and CYC1 terminator
T1 sequence (O00767 1-359): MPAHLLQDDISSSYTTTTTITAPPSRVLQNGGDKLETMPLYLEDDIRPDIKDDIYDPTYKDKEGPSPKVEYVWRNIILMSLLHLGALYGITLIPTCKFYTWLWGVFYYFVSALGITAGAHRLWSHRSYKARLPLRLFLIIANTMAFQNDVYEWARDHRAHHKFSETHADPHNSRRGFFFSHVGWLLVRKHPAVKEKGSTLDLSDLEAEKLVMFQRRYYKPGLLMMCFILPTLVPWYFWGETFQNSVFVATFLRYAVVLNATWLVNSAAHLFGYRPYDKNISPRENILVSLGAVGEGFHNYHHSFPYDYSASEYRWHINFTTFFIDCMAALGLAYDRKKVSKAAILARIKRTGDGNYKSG
The experiment can be described thus: Growth inhibition of humanized yeast strain expressing SCD1 as sole desaturase. It is filed as cell-based. The conditions noted are these: humanized yeast strain expressing SCD1. Put shortly: (§1)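 Measured by optical density at 600 nm, growth of desaturase-dependent yeast (OLE1 deleted; human SCD1, human SCD5 or yeast Ole1 supplied from plasmid) was scored after 24 h (Ole1) or 40 h (SCD1, SCD5) at 30° C. in galactose media lacking uracil with DMSO-delivered compound.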

The target of a further experiment is T2, SCD5 (Homo sapiens, UniProt Q86SK9).
T2 construct: host or cells: S. cerevisiae ole1Δ strain (W303 pdr1Δ pdr3Δ background), plasmid pRS316 with TDH3 promoter and CYC1 terminator
T2 sequence (Q86SK9 1-330): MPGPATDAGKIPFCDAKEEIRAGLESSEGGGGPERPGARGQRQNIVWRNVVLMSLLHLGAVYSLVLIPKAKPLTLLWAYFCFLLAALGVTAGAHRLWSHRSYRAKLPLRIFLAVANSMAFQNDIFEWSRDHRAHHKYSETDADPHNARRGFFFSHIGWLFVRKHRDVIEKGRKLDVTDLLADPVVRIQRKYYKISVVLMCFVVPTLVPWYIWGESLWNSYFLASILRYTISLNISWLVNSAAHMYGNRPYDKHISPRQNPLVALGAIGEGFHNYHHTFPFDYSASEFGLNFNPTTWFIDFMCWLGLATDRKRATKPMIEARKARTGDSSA
As to the kind of experiment: Growth inhibition of humanized yeast strain expressing SCD5 as sole desaturase. The experiment is classed as cell-based. The settings on record: humanized yeast strain expressing SCD5. Put shortly: as §1

The target of another experiment is T3, Ole1 (Saccharomyces cerevisiae, UniProt P21147).
T3 construct: expressed in transfected cells; host or cells: S. cerevisiae ole1Δ strain (W303 pdr1Δ pdr3Δ background), plasmid pRS316 with TDH3 promoter and CYC1 terminator
T3 sequence (P21147 1-510): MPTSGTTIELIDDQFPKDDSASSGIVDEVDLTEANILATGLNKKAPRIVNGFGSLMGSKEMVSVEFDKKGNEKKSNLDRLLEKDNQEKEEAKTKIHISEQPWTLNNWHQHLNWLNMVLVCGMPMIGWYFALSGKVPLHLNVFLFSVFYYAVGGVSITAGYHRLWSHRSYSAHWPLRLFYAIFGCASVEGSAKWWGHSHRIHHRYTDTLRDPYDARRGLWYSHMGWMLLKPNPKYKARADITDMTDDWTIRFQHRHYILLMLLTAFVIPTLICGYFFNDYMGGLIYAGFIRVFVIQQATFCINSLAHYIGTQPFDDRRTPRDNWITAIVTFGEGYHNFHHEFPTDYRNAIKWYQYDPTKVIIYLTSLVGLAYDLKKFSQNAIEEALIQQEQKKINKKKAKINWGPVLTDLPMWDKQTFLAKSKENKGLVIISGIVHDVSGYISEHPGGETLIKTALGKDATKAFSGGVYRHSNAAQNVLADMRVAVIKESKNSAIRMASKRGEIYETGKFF
As to the kind of experiment: Growth inhibition of yeast strain expressing Ole1 as sole desaturase. The experiment is classed as cell-based. The settings on record: yeast strain expressing Ole1 as sole desaturase. An outline of the steps:
as §1

In experiment [2] the test system is yeast strains expressing the human ApoE4. The experiment can be described thus: Yeast ApoE4 toxicity rescue assay (OD600 growth). The settings on record: 24 h; for pEC50: read-out: ApoE4 EC50; for Emax: read-out: ApoE4 Emax.
Excerpt: The induced expression of α-synuclein and ApoE4 confers cytotoxicity, thus enabling the identification of compounds that can restore cell viability. This instantaneous/synchronous induction of α-synuclein and ApoE4 can be achieved due to the following expression control. In glucose-containing media, gene expression from the GAL1 promoter is ‘off’ and actively repressed by additional epigenetic factors. In raffinose, expression is ‘off’, but the promoter not actively repressed. Upon transition to galactose-containing media, the promoter is instantaneously turned ‘on’ to achieve robust and synchronous induction of α-synuclein or ApoE4 expression. This highly regulated induction provides a robust window for the determination of both efficacy (amplitude of protective effect) and potency (concentration of protective effect) of cytoprotective compounds.
Re-suspended compound stocks were subsequently arrayed into 384 well compound plates using automated pipetting. All other wells not receiving stock compound were filled with 10 μL of 100% DMSO using an automated plate filler (Multidrop Combi). An 11 point, 2-fold serial dilution was then performed using the robotic platform. Compound assay plates were covered with foil and stored at −20° C. until use.
Each strain was handled according to standard protocols and cultured in media composed of CSM (complete synthetic media), YNB (yeast nitrogenous base), and a 2% (w/v) carbon source (either glucose, raffinose, or galactose).
In a standard yeast assay, a single-use aliquot of cells was thawed on ice and diluted into CSM/glucose (5 mL). Cultures were grown for 8 hours at 30° C. This pre-growth enables the yeast to exit the thaw and begin to grow without expressing aSyn or ApoE4. After 8 hours, cell density (OD600) was determined and cultures diluted to an OD600 of 0.01 in CSM/raffinose for an overnight culture phase at 30° C. During this period, the active glucose repression of the GAL1 promoter was relieved; however, expression of the α-Syn/ApoE4 genes were not yet induced. After ˜16 hours of growth, cultures attain an OD600 of 0.4-0.8 and were ready to apply to assay plates containing compound.
Compound profiling assays were executed in clear-bottom 384 well plates. First, compound plates were thawed at room temperature for 45′, centrifuged at 1,000×g for 1 minute, and the foil removed. Clear 384 well assay plates were then filled with 15 μL of CSM/galactose. […] The pin tool was washed iteratively with both 50% DMSO and 100% ethanol between each assay plate. After delivering compound to each assay plate, the overnight CSM/raffinose aSyn or ApoE4 cultures were added at a 2X cell density (0.04 for aSyn and 0.08 for ApoE4) in CSM/galactose to achieve a final assay OD600 of 0.02 and 0.04 for aSyn and ApoE, respectively. The cultures (15 μL per well) were then dispensed to the compound -containing 384 well assay plates using an automated plate filler. Plates were incubated in a humidified 30° C. incubator for 40 or 24 hours for aSyn and ApoE4, respectively. The ODsoo of each assay plate was then read with a microplate reader (e.g., Perkin Elmer Envision).
The efficacy and potency of compounds were calculated according to the following. Raw data (OD600 values) were first background corrected to account for OD600 contributed by the plate and media itself. The efficacy (percent above DMSO, herein referred to as “Emax”) was calculated according to the equation: (Experimental well−DMSO control well)/(DMSO control well)*100. […] Normalized dose-response data was fit with a logistic regression curve using Spotfire (TIBCO), or similar curve-fitting software package. EC50 values were then reported along with EMax to provide both efficacy and potency measures for each analog and enable further compound design.

For `COc1ccc(-c2noc(C3CCN(C(=O)C4CC(=O)N(c5ccc(C)c(C)c5)C4)CC3)n2)cc1OC` (stereo not shown) [compound 19], the pEC50 in experiment [1] was 5.62; in experiment [2], 5.25. The results for the Emax in experiment [1] and in experiment [2] were 574% and 891%, respectively. Also, the pIC50 against SCD1, against SCD5 and against Ole1 was less than 4.35 throughout.

For the compound `CCOc1ccc(-c2noc(C3CCN(C(=O)CNC(=O)c4ccccc4)CC3)n2)cc1F` [compound 97], the pEC50 in experiment [1] is 6.15; in experiment [2], 5.41. Also, the Emax stood at 132% in experiment [1] and 704% in experiment [2]. Moreover, the negative-log IC50 (pIC50) against SCD1 is less than 4.35; against SCD5 it was 4.52; on Ole1, less than 4.35.

For `COc1ccc(-c2csc(C3CCN(C(=O)CNC(=O)c4ccccc4)CC3)n2)cc1OC` [Compound 38], in experiment [1], the pEC50 was 5.48 and the Emax is 336%. At SCD1, the pIC50 was less than 4.35 and the “SCD1 % Max Inhibition” value came to 72.81%. Besides, on SCD5, the pIC50 is 4.39 and the “SCD5 % Max Inhibition” value amounted to 64.24%. For the same compound, on Ole1, the pIC50 is less than 4.35 and the “OLE1 % Max Inhibition” value was 20.26%. Further, in experiment [2], the pEC50 was 5.22 and the Emax is 750%.

Consider `Cc1ccc(-c2nc(C3CCN(C(=O)C4CC(=O)N(c5ccc(C)c(C)c5)C4)CC3)no2)cc1` (stereo not shown) [Compound 50], for which, in experiment [1], the pEC50 was 5.10 and the Emax is 85%. Besides, the “SCD1 % Max Inhibition” value at SCD1 is listed as 67.05%. Besides, at SCD5, the negative logarithm of the IC50 (pIC50) is less than 4.35 and the “SCD5 % Max Inhibition” value was found to be 46.80%. In addition, at Ole1, the pIC50 was less than 4.35 and the “OLE1 % Max Inhibition” value worked out at 98.10%. Besides, in experiment [2], the Emax was 133%.

In the case of `COc1ccc(-c2nc(C3CCN(C(=O)CNC(=O)c4ccccc4)CC3)no2)cc1OC` [Compound 36], in experiment [1], the negative-log EC50 (pEC50) is 5.76 and the Emax was determined as 629%. For the same compound, at SCD1, the pIC50 was 4.52 and the “SCD1 % Max Inhibition” value amounted to 64.67%. In addition, at SCD5, the pIC50 was less than 4.35 and the “SCD5 % Max Inhibition” value was determined as 63.86%. At Ole1, the pIC50 was less than 4.35 and the “OLE1 % Max Inhibition” value is reported as 17.70%. Further, in experiment [2], the pEC50 was 5.67 and the Emax amounted to 908%.

As to `O=C(NCC(=O)N1CCC(c2nc(-c3ccc4ccccc4n3)no2)CC1)c1ccccc1` [compound 79], the pEC50 in experiment [1] was 5.00; in experiment [2], 4.72. For the same compound, the Emax turned out to be 627% in experiment [1] and 631% in experiment [2]. In addition, the pIC50 against SCD1, against SCD5 and against Ole1 was less than 4.35 each time.

Turning to `Cc1cccc(-c2noc(C3CCN(C(=O)C4CC(=O)N(c5ccc(C)c(C)c5)C4)CC3)n2)c1` (stereo not shown) [compound 3], the pEC50 in experiment [1] was 4.75. Also, the values for the Emax in experiment [1] and in experiment [2] were 307% and 200%, respectively. Moreover, the pIC50 against SCD1 is less than 4.35; at SCD5, less than 4.35; against Ole1, 4.41.

For the compound `Cc1nn(C)c2cc(-c3noc(N4CCN(C(=O)C5CC(=O)N(c6ccccc6)C5)CC4)n3)ccc12` (stereo not shown) [compound 96], the pEC50 in experiment [1] was 7.59; in experiment [2] it was 6.64. The figures for the Emax in experiment [1] and in experiment [2] were 343% and 840%, respectively. The negative-log IC50 (pIC50) against SCD1, on SCD5 and against Ole1 was less than 4.35 throughout.

For the compound `Cc1ccc(-c2noc(C3CCN(C(=O)[C@H]4CC(=O)N(c5ccc(C)c(C)c5)C4)CC3)n2)cc1` (single isomer, unassigned) [Compound 61], in experiment [1], the pEC50 was 4.71 and the Emax was found to be 229%. Further, at SCD1, the pIC50 was less than 4.35 and the “SCD1 % Max Inhibition” value worked out at 2.37%. Also, at SCD5, the pIC50 was less than 4.35 and the “SCD5 % Max Inhibition” value was 13.18%. At Ole1, the pIC50 was 4.39 and the “OLE1 % Max Inhibition” value turned out to be 71.50%. Moreover, in experiment [2], the pEC50 is 4.71 and the Emax turned out to be 465%.

Take `COc1ccc(-c2noc(C3CCN(C(=O)CNC(=O)c4ccc(Cl)cc4)CC3)n2)cc1OC` [compound 27]: the pEC50 in experiment [1] was 7.23; in experiment [2], 6.41. Also, the figures for the Emax in experiment [1] and in experiment [2] were 589% and 761%, respectively. Besides, the pIC50 against SCD1, on SCD5 and against Ole1 was less than 4.35 throughout.

On to `CCOc1ccc(-c2noc(C3CCN(C(=O)N4CCCCC4)CC3)n2)cc1OC` [Compound 53], for which, in experiment [1], the pEC50 was 5.18 and the Emax worked out at 81%. At SCD1, the pIC50 is less than 4.35 and the “SCD1 % Max Inhibition” value turned out to be 79.96%. On SCD5, the negative-log IC50 (pIC50) was less than 4.35 and the “SCD5 % Max Inhibition” value is listed as 2.94%. Also, on Ole1, the negative-log IC50 (pIC50) was less than 4.35 and the “OLE1 % Max Inhibition” value is listed as 98.51%. Besides, in experiment [2], the negative logarithm of the EC50 (pEC50) was 4.78 and the Emax was found to be 296%.

In the case of `CCOc1ccc(-c2noc(C3CCN(C(=O)CNC(=O)c4ccccc4)CC3)n2)cc1Br` [compound 99], the negative logarithm of the EC50 (pEC50) in experiment [1] is 5.99; in experiment [2] it was 5.56. Further, the Emax in experiment [1] was found to be 209%; in experiment [2], 663%. In addition, the pIC50 at SCD1, at SCD5 and against Ole1 was less than 4.35 each time.

Take `O=C(NCC(=O)N1CCC(c2nc(-c3cccc(F)c3)no2)CC1)c1ccccc1` [Compound 42]: in experiment [1], the pEC50 is 4.90 and the Emax is 255%. In addition, on SCD1, the pIC50 was less than 4.35 and the “SCD1 % Max Inhibition” value came to 90.77%. Moreover, on SCD5, the pIC50 was less than 4.35 and the “SCD5 % Max Inhibition” value is recorded as 47.40%. Further, on Ole1, the pIC50 was less than 4.35 and the “OLE1 % Max Inhibition” value is reported as 95.43%. Also, the Emax in experiment [2] was 399%.

Take `CCOc1ccc(-c2noc(C3CCN(C(=O)[C@@H]4CC(=O)N(c5ccccc5)C4)CC3)n2)cc1OC` [compound 86]: the pEC50 in experiment [1] was 7.74; in experiment [2], 7.19. The Emax in experiment [1] stood at 772%; in experiment [2] it was 633%. For the same compound, the pIC50 against SCD1 is less than 4.35; against SCD5, 4.48; against Ole1, less than 4.35.

Take `COc1ccc(-c2noc(C3CCN(C(=O)CNC(=O)c4cccc(Cl)c4)CC3)n2)cc1OC` [compound 26]: the pEC50 in experiment [1] was 7.38; in experiment [2], 6.42. The Emax in experiment [1] was determined as 608%; in experiment [2], 811%. Besides, the pIC50 was less than 4.35 against SCD1, 4.61 on SCD5 and less than 4.35 at Ole1.

As to `COc1ccc(-c2noc(C3CCN(C(=O)COCc4ccccc4)CC3)n2)cc1OC` [Compound 31], in experiment [1], the pEC50 is 5.12 and the Emax stood at 438%. Further, at SCD1, the pIC50 was less than 4.35 and the “SCD1 % Max Inhibition” value amounted to 81.19%. On SCD5, the pIC50 is 4.60 and the “SCD5 % Max Inhibition” value is given as 24.26%. Besides, at Ole1, the pIC50 is less than 4.35 and the “OLE1 % Max Inhibition” value came to 79.60%. In addition, in experiment [2], the pEC50 was 5.01 and the Emax worked out at 721%.

For the compound `COc1ccc(-c2nsc(C3CCN(C(=O)CNC(=O)c4ccccc4)CC3)n2)cc1OC` [Compound 35], in experiment [1], the pEC50 is 7.28 and the Emax came to 626%. On SCD1, the pIC50 is less than 4.35 and the “SCD1 % Max Inhibition” value came to 79.23%. Moreover, on SCD5, the pIC50 is less than 4.35 and the “SCD5 % Max Inhibition” value is reported as 68.57%. At Ole1, the pIC50 is less than 4.35 and the “OLE1 % Max Inhibition” value amounted to 3.66%. In addition, in experiment [2], the negative-log EC50 (pEC50) is 5.95 and the Emax was found to be 911%.
